The record followed here is patent US8134015B2, “Compound inhibiting in vivo phosphorous transport and medicine containing the same” (Kyowa Hakko Kirin Co., Ltd., priority 2003, dated 2012).

In general, IC50 refers to the concentration that inhibits the measured activity by half. By inhibition is commonly meant the percentage by which the read-out fell short of the control. A low value points to little suppression.

Each structure is given as a SMILES string.

One assay addresses T1, rat NaPi-2b (Rattus norvegicus, UniProt Q9JJ09).
T1 construct: expressed in transfected cells; host or cells: Xenopus oocytes injected with cRNA
T1 sequence (Q9JJ09 1-695): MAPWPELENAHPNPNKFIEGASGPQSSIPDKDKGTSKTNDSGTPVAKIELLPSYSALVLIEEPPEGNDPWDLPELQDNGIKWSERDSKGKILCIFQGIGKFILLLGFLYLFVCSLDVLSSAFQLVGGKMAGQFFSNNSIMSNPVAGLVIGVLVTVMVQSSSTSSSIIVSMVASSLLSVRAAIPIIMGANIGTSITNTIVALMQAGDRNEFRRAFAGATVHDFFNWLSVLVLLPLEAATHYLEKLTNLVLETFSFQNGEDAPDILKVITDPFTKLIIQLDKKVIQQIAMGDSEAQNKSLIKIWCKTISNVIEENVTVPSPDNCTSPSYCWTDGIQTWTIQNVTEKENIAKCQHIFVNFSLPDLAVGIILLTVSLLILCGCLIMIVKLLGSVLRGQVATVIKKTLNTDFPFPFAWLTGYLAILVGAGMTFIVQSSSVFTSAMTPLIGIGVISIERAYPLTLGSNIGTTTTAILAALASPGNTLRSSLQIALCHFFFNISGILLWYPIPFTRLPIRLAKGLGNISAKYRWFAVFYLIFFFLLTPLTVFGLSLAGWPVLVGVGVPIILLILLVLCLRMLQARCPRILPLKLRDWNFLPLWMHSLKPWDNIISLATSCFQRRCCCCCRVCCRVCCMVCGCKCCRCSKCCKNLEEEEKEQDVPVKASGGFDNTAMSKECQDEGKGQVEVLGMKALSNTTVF
Nature of the assay: Sodium-dependent phosphate uptake of Xenopus oocytes which expressed NaPi-2b (32P). The assay is classed as cell-based. The conditions noted are these: Xenopus oocytes expressing rat NaPi-2b, 32P radioactive phosphorus; read-out: IC50 (phosphate uptake inhibitory activity). The method, boiled down:
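Steps: rat NaPi-2b cDNA cloned from small intestine; cRNA made and injected into oocytes; 2-day expression; 32P phosphate uptake with compound; % inhibition at 300/100 μM taken from one curve.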
As to `COc1ccc(/C=N/NC(=O)c2cc(Cl)ccc2NC(=O)c2cccc(CN3CCC(N4CCCCC4)CC3)c2)cc1` [Compound 375, 3-[1,4′]Bipiperidinyl-1′-ylmethyl-N-[4-chloro-2-(4-methoxy-benzylidene-hydrazinocarbonyl)-phenyl]-benzamide], the IC50 is 24.7 µM.

Turning to `CCSCCNCc1ccc(C(=O)Nc2ccc(Br)cc2C(=O)N/N=C/c2ccc(C)c(C)c2)cc1` [Compound 764, N-[4-Bromo-2-(3,4-dimethyl-benzylidene-hydrazinocarbonyl)-phenyl]-4-[(2-ethylsulfanyl-ethylamino)-methyl]-benzamide], the IC50 is 5.92 µM.

With `CN(Cc1ccc(C(=O)Nc2ccc(Br)cc2C(=O)N/N=C/c2cccc(F)c2)cc1)CC(O)c1ccc(O)cc1` (stereo not drawn) [Compound 725, N-[4-Bromo-2-(3-fluoro-benzylidene-hydrazinocarbonyl)-phenyl]-4-({[2-hydroxy-2-(4-hydroxy-phenyl)-ethyl]-methyl-amino}-methyl)-benzamide], the IC50 is 69.4 µM.

As to `COc1ccc(C(=O)Nc2ccc(I)cc2C(=O)N/N=C/c2ccc(C)cc2)cc1OC` [Compound 207, N-[4-Iodo-2-(4-methyl-benzylidene-hydrazinocarbonyl)-phenyl]-3,4-dimethoxy-benzamide], the IC50 was < 1 µM.

On to `CN(C)CCn1nnnc1SCc1cccc(C(=O)Nc2ccc(Cl)cc2C(=O)N/N=C/c2ccc(F)cc2)c1` [Compound 463, N-[4-Chloro-2-(4-fluoro-benzylidene-hydrazinocarbonyl)-phenyl]-3-[1-(2-dimethylamino-ethyl)-1H-tetrazol-5-ylsulfanylmethyl]-benzamide], for which the IC50 is 4.44 µM.

Regarding `Cc1ccc(/C=N/NC(=O)c2cc(Br)ccc2NC(=O)c2cccc(CNCCN3CCOCC3)c2)cc1C` [Compound 279, N-[4-Bromo-2-(3,4-dimethyl-benzylidene-hydrazinocarbonyl)-phenyl]-3-[(2-morpholin-4-yl-ethylamino)-methyl]-benzamide], the IC50 was 2.31 µM.

For the molecule `COc1ccc(NC(=O)c2cccc(CSCC(O)CO)c2)c(C(=O)N/N=C/c2ccc(C)cc2)c1` (stereo not drawn) [Compound 1018, 3-(2,3-Dihydroxy-propylsulfanylmethyl)-N-[4-methoxy-2-(4-methyl-benzylidene-hydrazinocarbonyl)-phenyl]-benzamide], the IC50 came to 0.92 µM.

In the case of `O=C(Nc1ccccc1C(=O)N/N=C/c1ccc(Cl)cc1)c1cccc(OC(F)(F)F)c1` [Compound 123], the IC50 is 3.77 µM.

For the molecule `Cc1ccc(/C=N/NC(=O)c2cc(Br)ccc2NC(=O)c2ccccn2)cc1` [Compound 498, Pyridin-2-carboxylic acid [4-bromo-2-(4-methyl-benzylidene-hydrazinocarbonyl)-phenyl]-amide], the IC50 amounted to 0.6 µM.

`Cc1csc(NC(=O)c2cccc(CN3CCN(CCO)CC3)c2)c1C(=O)N/N=C/c1cccc(F)c1` [Compound 578, N-[3-(3-Fluoro-benzylidene-hydrazinocarbonyl)-4-methyl-thiophen-2-yl]-3-[4-(2-hydroxy-ethyl)-piperazin-1-ylmethyl]-benzamide]: the IC50 is < 3 µM.

Consider `COc1ccc(/C=N/NC(=O)c2c(C)csc2NC(=O)c2cccc(CN3CCC(O)CC3)c2)cc1` [Compound 598, 3-(4-Hydroxy-piperidin-1-ylmethyl)-N-[3-(4-methoxy-benzylidene-hydrazinocarbonyl)-4-methyl-thiophen-2-yl]-benzamide], for which the IC50 stood at 53 µM.

On to `Cc1csc(NC(=O)c2cccc(CN3CCN(CCO)CC3)c2)c1C(=O)N/N=C/c1ccc(Cl)c(C(F)(F)F)c1` [Compound 579, N-[3-(4-Chloro-3-trifluoromethyl-benzylidene-hydrazinocarbonyl)-4-methyl-thiophen-2-yl]-3-[4-(2-hydroxy-ethyl)-piperazin-1-ylmethyl]-benzamide], for which the IC50 is < 3 µM.

Consider `CCN(CC)CCOc1ccc(NC(=O)c2ccc(OC)c(OC)c2)c(C(=O)N/N=C/c2ccc(F)cc2)c1` [Compound 140, N-[4-(2-Diethylamino-ethoxy)-2-(4-fluoro-benzylidene-hydrazinocarbonyl)-phenyl]-3,4-dimethoxy-benzamide], for which the IC50 was determined as 74.2 µM.

For `O=C(Nc1ccccc1C(=O)N/N=C/c1cccc(F)c1)c1cccnc1` [Compound 129, N-[2-(3-Fluoro-benzylidene-hydrazinocarbonyl)-phenyl]-nicotinamide], the IC50 turned out to be 13.7 µM.

On to `O=C(Nc1ccccc1C(=O)N/N=C/c1ccccc1)c1ccccc1F` [Compound 27, N-[2-(Benzylidene-hydrazinocarbonyl)-phenyl]-2-fluoro-benzamide], for which the IC50 stood at 3.63 µM.

As for `CC(O)CN(Cc1cccc(C(=O)Nc2cc3ccccc3cc2C(=O)N/N=C/c2ccc(Cl)c(C(F)(F)F)c2)c1)CC(C)O` (stereo not drawn) [Compound 962, 3-{[Bis-(2-hydroxy-propyl)-amino]-methyl}-N-[3-(4-chloro-3-trifluoromethyl-benzylidene-hydrazinocarbonyl)-naphthalen-2-yl]-benzamide], the half-maximal inhibitory concentration (IC50) was < 1 µM.

As for `COc1ccc(C(=O)Nc2ccc(Br)cc2C(=O)N/N=C/c2ccc(C)cc2)cc1OC` [Compound 62, N-[4-Bromo-2-(4-methyl-benzylidene-hydrazinocarbonyl)-phenyl]-3,4-dimethoxy-benzamide], the IC50 is 0.9 µM.

`CCN(CC)CCSCc1cccc(C(=O)Nc2ccc(N3CCCCC3)cc2C(=O)NN=Cc2ccc(OC)cc2)c1` [Compound 879, 3-(2-Diethylamino-ethylsulfanylmethyl)-N-[2-(4-methoxy-benzylidene-hydrazinocarbonyl)-4-piperidin-1-yl-phenyl]-benzamide]: the IC50 turned out to be 3.72 µM.

On to `COc1ccc(C(=O)Nc2ccccc2C(=O)N/N=C/c2cccc(F)c2)cc1` [Compound 47, N-[2-(3-Fluoro-benzylidene-hydrazinocarbonyl)-phenyl]-4-methoxy-benzamide], for which the IC50 came out at 4.38 µM.

`CCN(CC)CCN(C)Cc1cccc(C(=O)Nc2sccc2C(=O)N/N=C/c2cccc(F)c2)c1` [Compound 667, 3-{[(2-Diethylamino-ethyl)-methyl-amino]-methyl}-N-[3-(3-fluoro-benzylidene-hydrazinocarbonyl)-thiophen-2-yl]-benzamide]: the IC50 is 30.5 µM.

For `Cc1ccc(/C=N/NC(=O)c2c(C)csc2NC(=O)c2cccc(CN(CC(C)O)CC(C)O)c2)cc1` (stereo not drawn) [Compound 588, 3-{[Bis-(2-hydroxy-propyl)-amino]-methyl}-N-[4-methyl-3-(4-methyl-benzylidene-hydrazinocarbonyl)-thiophen-2-yl]-benzamide], the IC50 stood at 9.33 µM.

For `O=C(Nc1ccccc1C(=O)N/N=C/c1cccnc1)c1ccc(F)cc1` [Compound 113, 4-Fluoro-N-[2-(pyridin-3-ylmethylene-hydrazinocarbonyl)-phenyl]-benzamide], the IC50 worked out at 17.9 µM.

For the molecule `CCN1CC(NCc2ccc(-c3nc4ccc(Br)cc4c(=O)n3/N=C/c3ccc(Cl)c(C(F)(F)F)c3)cc2)CN1CC` [Compound 753, 6-Bromo-3-[(4-chloro-3-trifluoromethyl-benzylidene)-amino]-2-{4-[(1,2-diethyl-pyrazolidin-4-ylamino)-methyl]-phenyl}-3H-quinazolin-4-one], the IC50 worked out at 12.4 µM.

The same assay, now with this note: phosphate uptake, oocytes expressing rat NaPi-2b; 300 μM, determined from inhibition curve.
Consider `CCN(CC)CCNCc1cccc(C(=O)Nc2c(C)csc2C(=O)N/N=C/c2ccc(Cl)c(C(F)(F)F)c2)c1` [Compound 539, N-[2-(4-Chloro-3-trifluoromethyl-benzylidene-hydrazinocarbonyl)-4-methyl-thiophen-3-yl]-3-[(2-diethylamino-ethylamino)-methyl]-benzamide], for which the inhibition at 300 µM was found to be 88.4%.

For the molecule `C/C(=N\NC(=O)c1cc(Cl)ccc1NC(=O)c1cccnc1)c1cccc(C)c1` [Compound 250, N-[4-Chloro-2-(1-m-toluyl-ethylidene-hydrazinocarbonyl)-phenyl]-nicotinamide], the inhibition at 300 µM came out at 37.9%.

`O=C(Nc1ccc(Br)cc1C(=O)N/N=C/c1cccc(F)c1)c1ccc(CN2CCN(c3ccccn3)CC2)cc1` [Compound 775, N-[4-Bromo-2-(3-fluoro-benzylidene-hydrazinocarbonyl)-phenyl]-4-(4-pyridin-2-yl-piperazin-1-ylmethyl)-benzamide] gave an inhibition at 300 µM of 44.6%.

Regarding `CN(CCCN(C)Cc1cccc(C(=O)Nc2ccc(Cl)cc2C(=O)N/N=C/c2ccc(F)cc2)c1)Cc1cccc(C(=O)Nc2ccc(Cl)cc2C(=O)N/N=C/c2ccc(F)cc2)c1` [Compound 701, N1-[4-Chloro-2-({2-[(E)-1-(4-fluorophenyl)methylidene]-hydrazino}carbonyl}phenyl}-3-{[{3-[(3-{[4-chloro-2-([2-[(E)-1-(4-fluorophenyl)methylidene]hydrazino}carbonyl}anilino}carbonyl}benzyl}-(methyl)amino)propyl)(methyl)amino]methyl]benzamide], at 300 µM the inhibition was 54%.
